# Article PMC9709425, “The inhibition of NCS-1 binding to Ric8a rescues fragile X syndrome mice model phenotypes” (Frontiers in Neuroscience, 2022)
# Legend:
# NCS-1/Ric8a complex [1] = target: T1, NCS-1/Ric8a complex (Homo sapiens, UniProt P62166); assay: In situ proximity ligation assay (PLA) of NCS-1 binding to Ric8a in HEK293 cells; assay type: cell-based; settings: FD44 20 μM
# T1 construct: expressed in transfected cells; host or cells: HEK293
# Experimental: Human embryonic kidney HEK293 cells were grown in Dulbecco's modified Eagle's medium supplemented with 2 mM L-glutamine, 100 U/ml penicillin/streptomycin, MEM non-essential amino acid solution (1/100), and 5% (v/v), and heat-inactivated fetal bovine serum (all from Thermo). The human NCS-1 and Ric8a-V5 constructs were previously generated (Mansilla et al., [2017]). Plasmids were co-transfected onto HEK293 using Lipofectamin 2000 (Thermo) following the manufacturer's instructions. Approximately 20 μM of FD44 diluted in dimethyl sulfoxide (DMSO) or the same volume of DMSO was added to culture cells 24 h after transfection.
# For the in situ proximity ligation assay (PLA), cells were grown in coverslips and, after transfection and treatment, fixed for 20 min with a fixation reagent, and later permeabilized with a permeabilization reagent, all from the Intracellular Fixation and Permeabilization buffer set (eBioscience, Thermo). […] Finally, interactions were detected with Duolink in Situ PLA Green Detection kit (Sigma) following the manufacturer's instructions. Cover slips were mounted with ProLong reagent (Thermo) containing Hoescht, and staining was analyzed with a standard fluorescence microscope.
# To better quantify the interaction, PLA was performed followed by flow cytometry. […] Cells were analyzed on FACS Canto II (BD Bioscience) with BD FACS Diva software.
# [2] = Pharmacokinetic profile, plasma and brain, single dose in BALB/c WT mice; assay type: in vivo; settings: mouse
# Experimental: The pharmacokinetic (PK) assay was performed by Sai Life Sciences Ltd. in BALB/c WT mice aged 8–12-months.
# (§1) FD44 solution formulation in 5% NMP, 5% Solutol HS-15, 30% PEG-400, and 60% citric acid (10 mM) was administered in doses of 10 and 50 mg/kg dose intraperitoneally and orally, respectively. A single dose was administered to 8–12-month-old mice for PK and a daily intraperitoneal dose to 2-month-old mice for 4 weeks for further behavioral and biochemical studies. […] PK was performed in collaboration with Sai life Science Ltd. Blood samples were collected from retro-orbital plexus into ethylenediamine tetraacetic acid (EDTA) tubes from a set of three mice at each time point. Plasma was immediately harvested from the blood by centrifugation at 2,500 g for 10 min at 4°C. Immediately after collection of blood, brain samples were collected and homogenized using ice-cold phosphate buffer saline. Concentrations of FD44 in mouse plasma and brain samples were determined by the fit-for-purpose liquid chromatography with tandem mass spectrometry (LC-MS/MS) method. PK parameters were calculated using the non-compartmental analysis tool of Phoenix WinNonlin® (Version 7.0). Areas under the concentration time curve (AUClast and AUCinf) were calculated using a linear trapezoidal rule.
# Fmr1 KO2 mice [3] = assay: Open field test (hyperactivity) in Fmr1 KO2 mice; assay type: in vivo, mouse; settings: 10 mg/kg IP daily for 4 weeks
# Experimental: as §1, with “Immediately after collection of blood, brain samples were collected and homogenized using ice-cold phosphate buffer saline.” left out
# (§2) Tests were conducted at the end of the treatment, that is, 4th week, and mice were tested on one behavioral task a day. […] Activity was monitored by IR beam breaks and decoded using VersaDat software (AccuScan). […] The distance traveled for 30 min was measured in centimeter for all cases.
# Fmr1 KO2 mice [4] = assay: Fear conditioning (associative learning) in Fmr1 KO2 mice; assay type: in vivo, mouse; settings: 10 mg/kg IP daily for 4 weeks
# Experimental: as §1
# Associative learning of an aversive sound followed by an electrical shock was used to analyze fear conditioning. […] Memory was tested 24 h after training, and freezing time was recorded for 5 min.
# Fmr1 KO2 mice [5] = assay: Self-grooming (stereotype) in Fmr1 KO2 mice; assay type: in vivo, mouse; settings: 10 mg/kg IP daily for 4 weeks
# Experimental: as §1, with “Immediately after collection of blood, brain samples were collected and homogenized using ice-cold phosphate buffer saline.” left out
# (§3) Stereotype was evaluated by self-grooming. For this, mice were placed individually in a cage, after a 5-min habituation period, the time spent to grooming any part of the body was recorded for 3 min. […] The latency between attacks was measured for 3 min.
# Fmr1 KO2 mice [6] = assay: Aggression test (latency between attacks) in Fmr1 KO2 mice; assay type: in vivo, mouse; settings: 10 mg/kg IP daily for 4 weeks
# Experimental: as §1, with “Immediately after collection of blood, brain samples were collected and homogenized using ice-cold phosphate buffer saline.” left out
# as §3
# Fmr1 KO mice [7] = assay: Open field test (hyperactivity) in Fmr1 KO mice; assay type: in vivo, mouse; settings: 10 mg/kg IP for 4 weeks
# Experimental: as §1, with “Immediately after collection of blood, brain samples were collected and homogenized using ice-cold phosphate buffer saline.” left out
# as §2
# Fmr1 KO mice [8] = assay: Three-chamber social test in Fmr1 KO mice; assay type: in vivo, mouse; settings: 10 mg/kg IP for 4 weeks
# Experimental: as §1
# The three-chamber test assesses cognition in the form of interest in social novelty. Testing occurs in a three-chambered box with openings between the chambers. […] The time spent in each chamber is quantified for 6 min.
# DA metabolism = assay: DA levels and DA metabolic profile (HPLC) in brain areas of Fmr1 KO mice; assay type: in vivo, mouse; settings: FD44 IP for 4 weeks
# Experimental: as §1, with “Immediately after collection of blood, brain samples were collected and homogenized using ice-cold phosphate buffer saline.” left out, “rule. […]” for “rule.”
# Tissue samples were preserved at −80°C until analysis. […] DA and its metabolites were measured from supernatants by HPLC with an ESA Coulochem detector, according to Mena et al. ([1993]). […] Monoamine levels were identified by their retention time, and amounts were calculated against calibrated external standard solutions. […]
# [9] = tested on: Fmr1 KO, Fmr1 KO2, and WT mice; assay: Tolerability on treatment of mice; assay type: in vivo; settings: 10 mg/kg IP / 50 mg/kg PO
# Experimental: as §1
# NCS-1/Ric8a complex [10] = tested on: NCS-1/Ric8a complex; set-up: method as in Mansilla et al., 2017; settings: cell lysate; ref Mansilla et al., 2017; cited from earlier work
# neuronal cultures = tested on: neuronal cultures; set-up: method as in Mansilla et al., 2017; settings: ref Mansilla et al., 2017; cited from earlier work
# D1R = tested on: D1R; set-up: method as in Mansilla et al., 2017; settings: ref Mansilla et al., 2017; cited from earlier work
# D2R = tested on: D2R; set-up: method as in Mansilla et al., 2017; settings: ref Mansilla et al., 2017; cited from earlier work
# [11] = tested on: D. melanogaster FMRP mutants; settings: Drosophila melanogaster FXS model (FMRP mutants or fmr1 RNAi strain), FD44 in the food; ref Mansilla et al., 2017; cited from earlier work
# [12] = set-up: method as in Mansilla et al., 2017; settings: among compounds previously identified as NCS-1/Ric8a inhibitors; ref Mansilla et al., 2017; cited from earlier work
# T1 sequence (P62166 2-190 limits assumed, one chain of several): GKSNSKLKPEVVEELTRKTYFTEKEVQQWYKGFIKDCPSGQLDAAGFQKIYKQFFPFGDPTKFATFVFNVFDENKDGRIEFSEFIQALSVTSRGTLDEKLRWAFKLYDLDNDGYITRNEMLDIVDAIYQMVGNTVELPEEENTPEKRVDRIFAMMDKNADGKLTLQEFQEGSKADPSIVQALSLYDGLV
compound,measurement,setting,value
O=C(CN1CCCCC1)NN1c2ccccc2Sc2ccccc21 [FD44],"intensity and number of green fluorescence spots representing the NCS-1/Ric8a binding (PLA, microscopy)","NCS-1/Ric8a complex [1]; HEK293 co-transfected with NCS-1 and Ric8a-V5, 24 h",reduced
same,"reduction in binding (PLA followed by flow cytometry, mean fluorescence intensity)","NCS-1/Ric8a complex [1]; HEK293 co-transfected with human NCS-1 and Ric8a-V5, last 24 h, four independent experiments",40%
same,Cmax,"[2]; IP, 10 mg/kg single dose, brain",2560.16 ng/mL
same,Tmax,"[2]; IP, 10 mg/kg single dose, brain, 10 mg/kg",15 min
same,Brain-to-plasma ratio,"[2]; IP, 10 mg/kg single dose",2.48–7.65
same,time up to which brain concentrations were quantifiable,"[2]; IP, 10 mg/kg single dose",up to 480 min
same,time up to which plasma concentrations were quantifiable,"[2]; IP, 10 mg/kg single dose",up to 480 min
same,Cmax,"[2]; IP, 10 mg/kg single dose, plasma",981.19 ng/mL
same,Tmax,"[2]; IP, 10 mg/kg single dose, plasma, 10 mg/kg",5 min
same,Cmax,"[2]; PO, 50 mg/kg single dose, brain",5164.38 ng/mL
same,Tmax,"[2]; PO, 50 mg/kg single dose, brain, 50 mg/kg",15 min
same,Brain-to-plasma ratio,"[2]; PO, 50 mg/kg single dose",2.90 to 6.81
same,time up to which brain concentrations were quantifiable,"[2]; PO, 50 mg/kg single dose",up to 480 min
same,time up to which plasma concentrations were quantifiable,"[2]; PO, 50 mg/kg single dose",up to 480 min
same,Cmax,"[2]; PO, 50 mg/kg single dose, plasma",858.90 ng/mL
same,Tmax,"[2]; PO, 50 mg/kg single dose, plasma, 50 mg/kg",15 min
same,blood–brain barrier crossing,[2]; IP and PO PK study,perfectly crosses the blood–brain barrier
same,"hyperactivity, distance traveled in the open field",Fmr1 KO2 mice [3],complete recovery
same,"associative learning, freezing response after fear conditioning",Fmr1 KO2 mice [4],completely rescued impaired associative learning
same,"stereotype, self-grooming",Fmr1 KO2 mice [5],restored
same,"aggression, latency between attacks",Fmr1 KO2 mice [6],low level of aggressiveness similar to their WT counterparts
same,"hyperactivity, distance traveled in the open field",Fmr1 KO mice [7],normalizes
same,"social interest, time in chamber with unfamiliar vs familiar mouse (three-chamber test)",Fmr1 KO mice [8],able to restore the impaired social interest
same,DA metabolism ratio (metabolites HVA + DOPAC/DA) increase in the limbic area,DA metabolism,reversed
same,"tolerability, clinical signs",[9],well tolerated
same,inhibitory effect in a binding assay in vitro (co-immunoprecipitation),NCS-1/Ric8a complex [10],almost total inhibitory effect
same,toxicity in neuronal cultures,neuronal cultures,low toxicity
same,interaction with dopamine receptor D1R,D1R,does not interact
same,interaction with dopamine receptor D2R,D2R,does not interact
same,associative learning,[11],restored
same,synapse number,[11],restored
same,solubility profile,[12],best solubility profile
